Results reported in patent EP4417607A1, “HETEROCYCLIC COMPOUND AS SOS1 INHIBITOR AND USES THEREOF” (Nanjing Zaiming Pharmaceutical Co., Ltd., priority 2021, dated 2023).

Experiments:
H358 cells = test: H358 cell proliferation inhibition (CellTiter-Glo luminescent cell viability assay); assay type: cell-based; conditions: Homo sapiens, NCI-H358, 168 h, 7 days
Procedure, shortened: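 H358 cells seeded at 3000 cells/well in RPMI1640/10% FBS, treated with compound for 7 days at 37 °C/5% CO2. Viability read by CellTiter-Glo 3D luminescence, normalised to cell-free (100%) and compound-free (0%) controls; IC50 fitted from 8 concentrations by four-parameter curve.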

[1] = test system: p-ERK pathway in H358 cells; test: p-ERK pathway inhibition in H358 cells (Advanced phospho-ERK (Thr202/Tyr204) cellular kit, HTRF); assay type: cell-based; conditions: Homo sapiens, NCI-H358, 1 h compound incubation
Procedure, shortened: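 Serum-starved H358 cells (50000/well, overnight) treated with compound for 1 h at 37 °C, then lysed; phospho-ERK (Thr202/Tyr204) read by HTRF (665/620 nm ratio). Cell-free wells set 100% inhibition, untreated cells 0%; IC50 fitted from 8 concentrations by four-parameter curve.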

`Cc1nc(N[C@H](C)c2cccc(C(F)F)c2F)c2cn(N3CCOCC3)c(=O)c(N3CCOC[C@@H]3C)c2n1` [Example 68, 4-(((R)-1-(3-(difluoromethyl)-2-fluorophenyl)ethyl)amino)-2-methyl-8-((S)-3-methylmorpholine)-6-morpholinepyrido[4,3-d]pyrimidine-7(6H)-one] gave an IC50 (H358 cells) of 25.2 nM and an IC50 [1] of 15.3 nM.
Work on `Cc1nc(N[C@H](C)c2cccc(C(F)F)c2F)c2cn(N3CCOCC3)c(=O)c(N3CCN(C)CC3)c2n1` [Example 69, (R)-4-((1-(3-(difluoromethyl)-2-fluorophenyl)ethyl)amino)-2-methyl-8-(4-methylpiperazin-1-yl)-6-morpholinepyrido[4,3-d]pyrimidine-7(6H)-one] yielded an IC50 (H358 cells) of 22.9 nM and an IC50 [1] of 38.7 nM.
For `Cc1nc(N[C@H](C)c2cccc(C(F)(F)F)c2C)c2cn(N3CCOCC3)c(=O)c(N3CCN(C)CC3)c2n1` [Example 70, (R)-2-methyl-4-((1-(2-methyl-3-(trifluoromethyl)phenyl)ethyl)amino)-8-(4-methylpiperazin-1-yl)-6-morpholinepyrido[4,3-d]pyrimidine-7(6H)-one], the IC50 (H358 cells) was 45.2 nM and the IC50 [1] was 34.5 nM.
`Cc1nc(N[C@H](C)c2cccc(C#N)c2C)c2cn(C3(CF)CC3)c(=O)c(-c3ccc(C#N)cc3)c2n1` [Example 71, (R)-3-(1-((8-(4-cyanophenyl)-6-(1-(fluoromethyl)cyclopropyl)-2-methyl-7-oxo-6,7-dihydropyrido[4,3-d]pyrimidin-4-yl)amino)ethyl)-2-methylbenzonitrile] was tested, and the IC50 (H358 cells) was 114 nM and the IC50 [1] was 156 nM.
`Cc1nc(N[C@H](C)c2cccc(C(F)F)c2F)c2cn(C3(CF)CC3)c(=O)c(Oc3ccnc(C#N)c3)c2n1` [Example 72, (R)-4-((4-((1-(3-(difluoromethyl)-2-fluorophenyl)ethyl)amino)-6-(1-(fluoromethyl)cyclopropyl)-2-methyl-7-oxo-6,7-dihydropyrido[4,3-d]pyrimidin-8-yl)oxy)pyridinecarbonitrile] was tested, and the IC50 (H358 cells) was 73.8 nM and the IC50 [1] was 72.4 nM.
`CC(=O)N1CCC(Oc2c(=O)n(C3(CF)CC3)cc3c(N[C@H](C)c4cccc(C(F)F)c4F)nc(C)nc23)CC1` [Example 73, (R)-8-((1-acetylpiperidin-4-yl)oxy)-4-((1-(3-(difluoromethyl)-2-fluorophenyl)ethyl)amino)-6-(1-(fluoromethyl)cyclopropyl)-2-methylpyrido[4,3-d]pyrimidine-7(6H)-one] showed an IC50 (H358 cells) of 71.8 nM and an IC50 [1] of 104 nM.
With `Cc1nc(N[C@H](C)c2cccc(C#N)c2C)c2cn(N3CCOCC3)c(=O)c(N3CCN(C)CC3)c2n1` [Example 76, (R)-2-methyl-3-(1-((2-methyl-8-(4-methylpiperazin-1-yl)-6-morpholine-7-oxo-6,7-dihydropyrido[4,3-d]pyrimidin-4-yl)amino)ethyl)benzonitrile] the IC50 (H358 cells) was 108 nM and the IC50 [1] was 113 nM.
In the case of `[2H][C@](C)(Nc1nc(C)nc2c(N3CCOCC3)c(=O)n(N3CCOCC3)cc12)c1cccc(C(F)F)c1F` [Example 78, (R)-4-((1-(3-(difluoromethyl)-2-fluorophenyl)ethyl-1-d)amino)-2-methyl-6,8-dimorpholinepyrido[4,3-d]pyrimidine-7(6H)-one], the IC50 (H358 cells) is reported as 71.1 nM and the IC50 [1] is reported as 39.6 nM.
`Cc1nc(N[C@H](C)c2cccc(S(F)(F)(F)(F)F)c2)c2cn(N3CCOCC3)c(=O)c(N3CCN(C)CC3)c2n1` [Example 82, (R)-2-methyl-8-(4-methylpiperazin-1-yl)-6-morpholine-4-((1-(3-(pentafluoro-λ^6-sulfanyl)phenyl)ethyl)amino)pyrido[4,3-d]pyrimidine-7(6H)-one] gave an IC50 (H358 cells) of 30.4 nM and an IC50 [1] of 74.6 nM.
In the case of `CC(=O)Nc1c(=O)n(C2(CF)CC2)cc2c(N[C@H](C)c3cccc(C(F)F)c3F)nc(C)nc12` [Example 83, (R)-N-(4-((1-(3-(difluoromethyl)-2-fluorophenyl)ethyl)amino)-6-(1-(fluoromethyl)cyclopropyl)-2-methyl-7-oxo-6,7-dihydropyrido[4,3-d]pyrimidine-8-yl)acetamide], the IC50 (H358 cells) is reported as 90.9 nM and the IC50 [1] is reported as 92 nM.
With `Cc1nc(N[C@H](C)c2cccc(C(F)(F)F)c2C)c2cn(C3(CF)CC3)c(=O)c(N3CCO[C@H](C)C3)c2n1` [Example 85, 6-(1-(fluoromethyl)cyclopropyl)-2-methyl-4-(((R)-1-(2-methyl-3-(trifluoromethyl)phenyl)ethyl)amino)-8-((R)-2-methylmorpholine)pyrido[4,3-d]pyrimidine-7(6H)-one] the IC50 (H358 cells) was 97.2 nM and the IC50 [1] was 41 nM.
`[2H]C([2H])([2H])[C@@H](Nc1nc(C)nc2c(N3CCOCC3)c(=O)n(C3(CF)CC3)cc12)c1cccc(C(F)F)c1F` [Example 90] was tested, and the IC50 (H358 cells) was 35.4 nM and the IC50 [1] was 16.7 nM.
For `Cc1nc(N[C@H](C)c2cccc(C#N)c2C)c2cn(N3CCOCC3)c(=O)c(OC3(C)CC3)c2n1` [Example 91, (R)-2-methyl-3-(1-((2-methyl-8-(1-methylcyclopropoxy)-6-morpholinyl-7-oxo-6,7-dihydropyrido[4,3-d]pyrimidin-4-yl)amino)ethyl)benzonitrile], the IC50 (H358 cells) was 148 nM and the IC50 [1] was 133 nM.
`Cc1nc(N[C@H](C)c2cccc(C(F)F)c2F)c2cn(C3(CF)CC3)c(=O)c(N3CCN(C(C)C)CC3)c2n1` [Example 94, (R)-4-((1-(3-(difluoromethyl)-2-fluorophenyl)ethyl)amino)-6-(1-(fluoromethyl)cyclopropyl)-8-(4-isopropylpiperazin-1-yl)-2-methylpyrido[4,3-d]pyrimidine-7(6H)-one] gave an IC50 (H358 cells) of 16.8 nM and an IC50 [1] of 60.9 nM.
For `Cc1nc(N[C@H](C)c2cccc(C(F)F)c2F)c2cn(C3(CF)CC3)c(=O)c(N3CCN(C4COC4)CC3)c2n1` [Example 95, (R)-4-((1-(3-(difluoromethyl)-2-fluorophenyl)ethyl)amino)-6-(1-(fluoromethyl)cydopropyt)-2-methyt-8-(4-(oxetan-3-yt)piperazin-l-yt)pyrido[4,3-d]pyrimidine-7(6H)-one], the IC50 (H358 cells) was 10.2 nM and the IC50 [1] was 30.8 nM.
Compound `CCN(CC)c1c(=O)n(C2(CF)CC2)cc2c(N[C@H](C)c3cccc(C(F)F)c3F)nc(C)nc12` [Example 96, (R)-8-(diethylamino)-4-((1-(3-(difluoromethyl)-2-fluorophenyl)ethyl)amino)-6-(1-(fluoromethyl)cyclopropyl)-2-methylpyrido[4,3-d]pyrimidine-7(6H)-one] has an IC50 (H358 cells) of 50.5 nM and an IC50 [1] of 95.5 nM.
`Cc1nc(N[C@H](C)c2cccc(C(F)F)c2F)c2cn(C3(CF)CC3)c(=O)c(N3CCc4cn(C)nc4C3)c2n1` [Example 98, (R)-4-((1-(3-(difluoromethyl)-2-fluorophenyl)ethyl)amino)-6-(1-(fluoromethyl)cyclopropyl)-2-methyl-8-(2-methyl-2,4,5,7-tetrahydro-6H-pyrazolo[3,4-c]pyridin-6-yl)pyrido[4,3-d]pyrimidine-7(6H)-one] was tested, and the IC50 (H358 cells) was 44 nM and the IC50 [1] was 55.6 nM.
In the case of `Cc1nc(N[C@H](C)c2cccc(C(F)F)c2F)c2cn(N3CCOCC3)c(=O)c(-c3cnc4c(cnn4C)c3)c2n1` [Example 100], the IC50 (H358 cells) is reported as 80.8 nM and the IC50 [1] is reported as 49.8 nM.
`Cc1nc(N[C@H](C)c2cccc(C(F)F)c2F)c2cn(C3(CF)CC3)c(=O)c(N=S(C)(C)=O)c2n1` [Example 103, (R)-4-((1-(3-(difluoromethyl)-2-fluorophenyl)ethyl)amino)-8-((dimethyl(oxo)-λ^6-sulfanylidene)amino)-6-(1-(fluoromethyl)cyclopropyl)-2-methylpyrido[4,3-d]pyrimidine-7(6H)-one] was tested, and the IC50 (H358 cells) was 130 nM and the IC50 [1] was 82.4 nM.
`Cc1nc(N[C@H](C)c2cccc(C(F)F)c2F)c2cn(C3(CF)CC3)c(=O)c(-n3ncc4ncccc43)c2n1` [Example 104, (R)-4-((1-(3-(difluoromethyl)-2-fluorophenyl)ethyl)amino)-6-(1-(fluoromethyl)cyclopropyl)-2-methyl-8-(1H-pyrazolo[4,3-b]pyridin-1-yl)pyrido[4,3-d]pyrimidine-7(6H)-one] showed an IC50 (H358 cells) of 145 nM and an IC50 [1] of 57.5 nM.
`Cc1nc(N[C@H](C)c2cccc(C#N)c2C)c2cn(N3CCOCC3)c(=O)c(N3CCOCC3)c2n1` [Example 108, (R)-2-methyl-3-(1-((2-methyl-6,8-dimorpholine-7-oxo-6,7-dihydropyrido[4,3-d]pyrimidin-4-yl)amino)ethyl)benzonitrile] was tested, and the IC50 (H358 cells) was 76.4 nM and the IC50 [1] was 61.3 nM.
For `Cc1nc(N[C@H](C)c2cccc(C(F)F)c2F)c2cn(C3(CF)CC3)c(=O)c(N3CCN(CC4(C)COC4)CC3)c2n1` [Example 109, (R)-4-((1-(3-(difluoromethyl)-2-fluorophenyl)ethyl)amino)-6-(1-(fluoromethyl)cyclopropyl)-2-methyl-8-(4-((3-methyloxetan-3-yl)methyl)piperazin-1-yl)pyrido[4,3-d]pyrimidine-7(6H)-one], the IC50 (H358 cells) was 23.7 nM and the IC50 [1] was 35.5 nM.
Work on `Cc1nc(N[C@H](C)c2cccc(C#N)c2C)c2cn(N3CCOCC3)c(=O)c(N3CCOC[C@@H]3C)c2n1` [Example 110, 2-methyl-3-((R)-1-((2-methyl-8-((S)-3-methylmorpholine)-6-morpholine-7-oxo-6,7-dihydropyrido[4,3-d]pyrimidin-4-yl)amino)ethyl)benzonitrile] yielded an IC50 (H358 cells) of 50.4 nM and an IC50 [1] of 73.6 nM.
With `[2H][C@](C)(Nc1nc(C)nc2c(N3CCOC[C@@H]3C)c(=O)n(C3(CF)CC3)cc12)c1cccc(C(F)F)c1F` [Example 112, 4-(((R)-1-(3-(difluoromethyl)-2-fluorophenyl)ethyl-1-d)amino)-6-(1-(fluoromethyl)cyclopropyl)-2-methyl-8-((S)-3-methylmorpholine)pyrido[4,3-d]pyrimidine-7(6H)-one] the IC50 (H358 cells) was 21.2 nM and the IC50 [1] was 109 nM.
